The values below come from paper PMC8041284, “Tunable Methacrylamides for Covalent Ligand Directed Release Chemistry” (Journal of the American Chemical Society, 2021).

For this assay, the target named is BTK (Homo sapiens, UniProt Q06187). Nature of the assay: biochemical.
The mark [1] stands for this setting: read-out: BTK inhibition (%), 0.75 uM BTK, […] probe 3l, 15 min preincubation.

Read-outs that look alike come from different tables or passages of the source.

BTK, sequence (Q06187 402-655 limits assumed): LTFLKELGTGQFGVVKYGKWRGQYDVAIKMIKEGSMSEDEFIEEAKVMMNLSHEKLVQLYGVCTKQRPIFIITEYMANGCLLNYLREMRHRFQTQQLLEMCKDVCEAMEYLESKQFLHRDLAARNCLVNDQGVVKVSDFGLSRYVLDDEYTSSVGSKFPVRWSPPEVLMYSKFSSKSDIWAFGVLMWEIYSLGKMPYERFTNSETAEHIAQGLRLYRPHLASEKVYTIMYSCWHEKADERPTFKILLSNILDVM

On to `CO[C@@H]1[C@@H](O[C@@H]2O[C@H](C)[C@@H](O[C@H]3C[C@@](C)(O)[C@@H](O)[C@H](C)O3)[C@H](N(C)C)[C@H]2O)[C@@H](CC=O)C[C@@H](C)[C@@H](O[C@H]2CC[C@H](N(C)C)[C@@H](C)O2)/C=C/C=C/C[C@@H](C)OC(=O)C[C@H]1OC(C)=O` [PCM-0214867], for which the inhibition (in general, the drop in the measured response relative to a control, in per cent) at 10 µM under setting [1] stood at 14%. As to `CC1(C)C2CCC1(C)C(O)C2` (stereo not shown) [PCM-0214868], under setting [1], the inhibition at 10 µM came to 1.6%. With `COc1ccc2cc1Oc1ccc(cc1)C[C@H]1c3cc(c(OC)cc3CCN1C)Oc1c(O)c(OC)cc3c1[C@@H](C2)N(C)CC3` [PCM-0214869], the inhibition at 10 µM under setting [1] came out at 0.8%. In the case of `O=C(O)c1ccc(Cl)cc1O` [PCM-0214870], under setting [1], the inhibition at 10 µM was -10.9%.

With `O=C(CBr)c1ccc(O)cc1` [PCM-0214871], the inhibition at 10 µM under setting [1] was -28.8%. In the case of `C[C@H]1[C@H](C)CC[C@]2(C(=O)O[C@@H]3O[C@H](CO[C@@H]4O[C@H](CO)[C@@H](O[C@@H]5O[C@@H](C)[C@H](O)[C@@H](O)[C@H]5O)[C@H](O)[C@H]4O)[C@@H](O)[C@H](O)[C@H]3O)CC[C@]3(C)C(=CC[C@@H]4[C@@]5(C)C[C@@H](O)[C@H](O)[C@@](C)(CO)[C@@H]5CC[C@]43C)[C@H]12` [PCM-0214874], the inhibition at 10 µM under setting [1] was -15.9%. With `CC(C)=CCC[C@](C)(O)[C@H]1CC[C@]2(C)[C@@H]1[C@H](O)C[C@@H]1[C@@]3(C)CC[C@H](O)C(C)(C)[C@@H]3[C@@H](O)C[C@]12C` [PCM-0214875], the inhibition at 10 µM under setting [1] was 17.9%. With `COc1ccc2cc1Oc1ccc(cc1)C[C@H]1c3cc(c(OC)cc3CCN1C)Oc1c(O)c(OC)cc3c1[C@H](C2)N(C)CC3` [PCM-0214877], the inhibition at 10 µM under setting [1] was 27.2%. For `C=C1CC[C@H]2C(=C)CC[C@H]3C(=C)C(=O)O[C@@H]3[C@@H]12` [PCM-0214878], the inhibition at 10 µM under setting [1] turned out to be 32.7%. `COC(=O)c1ccc(O)c(OC)c1` [PCM-0214879]: under setting [1], the inhibition at 10 µM was -12.5%.

In the case of `Oc1ccc2c(c1)OCO2` [PCM-0214880], the inhibition at 10 µM under setting [1] was -3.9%. Still for that read-out and setting: then `CC1CNC(=O)NC1=O` (stereo not shown) [PCM-0214881], with -4.7%. `Cc1ccc(C=C2C(=O)C3(C)CCC2C3(C)C)cc1` (stereo not shown) [PCM-0214882]: the inhibition at 10 µM under setting [1] amounted to 5.4%. As for `NC(=O)[C@@H]1CC[C@@H]2CN1C(=O)N2OS(=O)(=O)O` [PCM-0214883], the inhibition at 10 µM under setting [1] was -9.3%.

For the molecule `CO[C@@H]1[C@@H](O[C@@H]2O[C@H](C)[C@@H](O[C@H]3C[C@@](C)(O)[C@@H](O)[C@H](C)O3)[C@H](N(C)C)[C@H]2O)[C@@H](CC=O)C[C@@H](C)[C@@H](O)/C=C/C=C/C[C@@H](C)OC(=O)C[C@H]1O` [PCM-0214884], the inhibition at 10 µM under setting [1] came out at 6.2%. `COC1=CC(=O)c2ccccc2C1=O` [PCM-0214886]: the inhibition at 10 µM under setting [1] was found to be 85.6%. As to `O=C(O)C1=C(CSc2nnnn2CS(=O)(=O)O)CS[C@@H]2[C@H](NC(=O)[C@H](O)c3ccccc3)C(=O)N12` [PCM-0214888], the inhibition at 10 µM under setting [1] worked out at 3.9%.

With `CCOC(=O)C1=C(COCCN)NC(C)=C(C(=O)OC)[C@@H]1c1ccccc1Cl` [PCM-0214889], under setting [1], the inhibition at 10 µM is -11.7%. Same read-out and setting: then `CC(C)(C)C(O)/C(=C\c1ccc(Cl)cc1)n1cncn1` (stereo not shown) [PCM-0214890], with -16.3%; and `O=c1[nH]c(=O)c2[nH]cnc2[nH]1` [PCM-0214891], with -10.9%. `CO/N=C1\C[C@]2(C[C@@H]3C[C@@H](C/C=C(\C)C[C@@H](C)/C=C/C=C4\CO[C@@H]5[C@H](O)C(C)=C[C@@H](C(=O)O3)[C@]45O)O2)O[C@H](/C(C)=C/C(C)C)[C@H]1C` [PCM-0214892]: the inhibition at 10 µM under setting [1] worked out at 16.3%. For the molecule `C#C[C@]1(O)CC[C@H]2[C@@H]3CCc4cc(OC5CCCC5)ccc4[C@H]3CC[C@@]21C` [PCM-0214893], the inhibition at 10 µM under setting [1] was -8.6%. `CC(C)N(CCCCOCC(=O)NS(C)(=O)=O)c1cnc(-c2ccccc2)c(-c2ccccc2)n1` [PCM-0214894]: the inhibition at 10 µM under setting [1] came to 11.7%.

Consider `C=C[C@@H]1C[C@]1(NC(=O)[C@@H]1C[C@@H]2CN1C(=O)[C@H](C(C)(C)C)NC(=O)O[C@@H]1C[C@H]1CCCCCc1nc3ccc(OC)cc3nc1O2)C(=O)NS(=O)(=O)C1CC1` [PCM-0214895], for which the inhibition at 10 µM under setting [1] was -13.2%.

`Cc1ccc(S(=O)(=O)Nc2cc(-c3ccc(C#N)s3)ccc2C)cc1` [PCM-0214896]: the inhibition at 10 µM under setting [1] is -6.2%.

As for `N=C1CCCN1Cc1[nH]c(=O)[nH]c(=O)c1Cl` [PCM-0214897], the inhibition at 10 µM under setting [1] is -10.1%. Regarding `CC(=O)[C@@]1(O)CC[C@H]2[C@@H]3C[C@H](C)C4=CC(=O)CC[C@]4(C)[C@H]3CC[C@@]21C` [PCM-0214898], under setting [1], the inhibition at 10 µM is -7.8%. Still for that read-out and setting: then `CO/N=C(\C(=O)N[C@@H]1C(=O)N2C(C(=O)[O-])=C(C[n+]3cccc4c3CCC4)CS[C@H]12)c1csc(N)n1` [PCM-0214899], with -4.7%; and `Cn1nnnc1SCC1=C(C(=O)O)N2C(=O)[C@@H](NC(=O)[C@H](OC=O)c3ccccc3)[C@H]2SC1` [PCM-0214900], with 8.6%.

On to `O=C(Nc1ccc(O)cc1)c1ccccc1O` [PCM-0214902], for which, under setting [1], the inhibition at 10 µM was -10.9%. Turning to `NC(=O)c1[nH]cnc1N` [PCM-0214903], the inhibition at 10 µM under setting [1] was -43.6%. Turning to `CO/N=C(\C(=O)N[C@@H]1C(=O)N2C(C(=O)O)=C(C[N+]3(C)CCCC3)CS[C@H]12)c1csc(N)n1` [PCM-0214905], the inhibition at 10 µM under setting [1] was -10.1%. For `CCCOc1ccc2c(c1)CC[C@@H]1[C@@H]2CC[C@]2(C)[C@@H](OC)CC[C@@H]12` [PCM-0214906], the inhibition at 10 µM under setting [1] was -24.1%. As to `CC(=O)OCC(=O)[C@@]1(O)CC[C@H]2[C@@H]3CCC4=CC(=O)CC[C@]4(C)[C@@]3(F)[C@@H](O)C[C@@]21C` [PCM-0214907], the inhibition at 10 µM under setting [1] is -8.3%. Take `Cc1ccccc1-n1c(CF)nc2ccc(N)cc2c1=O` [PCM-0214908]: for the setting “read-out: BTK inhibition (%)”, the inhibition at 10 µM amounted to 2.3%. On the same count and under the same terms, then `CC(C(=O)O)C(=O)O` [PCM-0214910], with -6.2%.

On to `CCCCCCC(=O)O[C@H]1CC[C@H]2[C@@H]3CCC4=CC(=O)CC[C@]4(C)[C@H]3CC[C@]12C` [PCM-0214913], for which, under “read-out: BTK inhibition (%)”, the inhibition at 10 µM stood at 6.2%.

For `CS(=O)(=O)c1cccc(C[C@H](NC(=O)c2c(Cl)cc3c(c2Cl)CCN(C(=O)c2ccc4ccoc4c2)C3)C(=O)O)c1` [PCM-0214914], the inhibition at 10 µM under setting [1] is -4.7%. Same read-out and setting: then `CCNC(=O)[C@@H]1CCCN1C(=O)[C@H](CCCN=C(N)N)NC(=O)[C@H](CC(C)C)NC(=O)[C@@H](CC(C)C)NC(=O)[C@H](Cc1ccc(O)cc1)NC(=O)[C@H](CO)NC(=O)[C@H](Cc1c[nH]c2ccccc12)NC(=O)[C@H](Cc1cnc[nH]1)NC(=O)[C@@H]1CCC(=O)N1` [PCM-0214915], with -11.7%.

Turning to `N#Cc1cc(-c2n[nH]c(-c3ccncc3)n2)ccn1` [PCM-0214916], the inhibition at 10 µM under setting [1] is -18.7%. Take `CSc1ccc(C(=O)/C=C/c2cc(C)c(OC(C)(C)C(=O)O)c(C)c2)cc1` [PCM-0214917]: the inhibition at 10 µM under setting [1] was 7%.

With `C[C@@H](c1nc(-c2ccc(C#N)cc2)cs1)[C@](O)(Cn1cncn1)c1cc(F)ccc1F` [PCM-0214918], the inhibition at 10 µM under setting [1] was -14%. Regarding `Cn1cc(C(=O)[C@@H]2CCc3nc[nH]c3C2)c2ccccc21` [PCM-0214919], the inhibition at 10 µM under setting [1] is -3.1%. Same read-out and setting: then `COC[C@H]1C[C@@H](c2ncc(-c3ccc4c(c3)COc3cc5c(ccc6[nH]c([C@@H]7CC[C@H](C)N7C(=O)[C@@H](NC(=O)OC)C(C)C)nc65)cc3-4)[nH]2)N(C(=O)[C@H](NC(=O)OC)c2ccccc2)C1` [PCM-0214920], with 56%. In the case of `OC(c1ccccc1)(c1ccccc1)C12CC[N+](CCOCc3ccccc3)(CC1)CC2` [PCM-0214921], the inhibition at 10 µM under setting [1] was -34.2%. For the molecule `CCOC(=O)c1cccc(N)c1` [PCM-0214922], the inhibition at 10 µM under setting [1] was -2.3%. For `COc1cccc(CCc2ccccc2OCC(CN(C)C)OC(=O)CCC(=O)O)c1` (stereo not shown) [PCM-0214923], under setting [1], the inhibition at 10 µM is -22.6%. As to `O=C1CN(/N=C/C=C/c2ccc([N+](=O)[O-])o2)C(=O)N1` [PCM-0214924], the inhibition at 10 µM under setting [1] is -7.8%.

For `O=c1[nH]c2ccccc2n1CCN1CCN(c2cccc(C(F)(F)F)c2)CC1` [PCM-0214925], the inhibition at 10 µM under setting [1] was -34.2%. For the molecule `C=C1/C(=C\C=C2/CCC[C@]3(C)[C@@H]([C@H](C)/C=C/[C@@H](O)C4CC4)CC[C@@H]23)C[C@@H](O)C[C@@H]1O` [PCM-0214926], under setting [1], the inhibition at 10 µM was found to be 1.6%.

As for `CCCNC[C@]1(O)[C@H](C)O[C@@H](O[C@H]2[C@H](C)[C@@H](O[C@@H]3O[C@H](C)C[C@H](N(C)C)[C@H]3O)[C@](C)(O)C[C@@H](C)CN[C@H](C)[C@@H](O)[C@](C)(O)[C@@H](CC)OC(=O)[C@@H]2C)C[C@@]1(C)OC` [PCM-0214927], the inhibition at 10 µM under setting [1] was -26.5%. As for `CC(C)(C)NC(=O)N[C@H](C(=O)N1C[C@H]2[C@@H]([C@H]1C(=O)NC(CC1CCC1)C(=O)C(N)=O)C2(C)C)C(C)(C)C` (stereo partly shown) [PCM-0214929], under setting [1], the inhibition at 10 µM came to 8.6%.

Consider `CC(C)(C)c1cc(O)c(C(C)(C)C)cc1O` [PCM-0214931], for which the inhibition at 10 µM under setting [1] was determined as 26.5%. As for `O=C(Cn1ccnc1[N+](=O)[O-])NCc1ccccc1` [PCM-0214934], the inhibition at 10 µM under setting [1] is 3.1%. As for `C=C[C@H]1CN2CC[C@H]1C[C@@H]2[C@@H](O)c1ccnc2ccccc12` [PCM-0214935], under setting [1], the inhibition at 10 µM was -17.1%. For the molecule `COc1ccnc(C[S+]([O-])c2nc3ccc(-n4cccc4)cc3[nH]2)c1C` (stereo not shown) [PCM-0214937], under setting [1], the inhibition at 10 µM was determined as 25.7%. The same measure, in the same setting: then `O=C(O)/C=C/c1ccc(O)cc1` [PCM-0214939], with -21.8%; and `NC(=S)c1ccncc1` [PCM-0214940], with 7.8%; and `CC(/C=C/C=C(\C)C(=O)O[C@@H]1O[C@H](CO[C@@H]2O[C@H](CO)[C@@H](O)[C@H](O)[C@H]2O)[C@@H](O)[C@H](O)[C@H]1O)=C\C=C\C=C(C)\C=C\C=C(/C)C(=O)O[C@@H]1O[C@H](CO[C@@H]2O[C@H](CO)[C@@H](O)[C@H](O)[C@H]2O)[C@@H](O)[C@H](O)[C@H]1O` [PCM-0214941], with -8.6%. Take `COc1cc(/C=C/c2ccc(O)c(O)c2)cc(OC)c1` [PCM-0214943]: the inhibition at 10 µM under setting [1] was determined as 36.6%. Consider `O=C1C[C@@H](c2ccccc2)Oc2cc(O)cc(O)c21` [PCM-0214944], for which, under setting [1], the inhibition at 10 µM was 11.7%.
